Structures can show the parent of a compound that is named as a salt.
Tests used:
recombinant human CHIT1 = recombinant human CHIT1 (Homo sapiens (Human), UniProt Q13231); assay: Human CHIT1 activity assay; type: biochemical; details: recombinant human CHIT1, citrate buffer pH 5.2, 37° C., 60 minutes; read-out: hCHIT1, IC50
Method: (§1) The assay was run in the 96-well plate format, each reaction in the total volume of 100 μL. 4-methylumbelliferyl β-D-N,N′,N″-triacetylchitotriose was used as a substrate for the enzyme. Upon hydrolysis by CHIT1, the substrate releases 4-methylumbelliferyl (4MU) that, when ionized in basic pH, emits fluorescence at 460 nm. Briefly, 40 μL of a substrate was added to each well, followed by 10 μL of compound dilution and 50 μL of CHIT1 recombinant enzyme solution. The reaction was carried out in citrate buffer, pH 5.2, in the dark, at 37° C. for 60 minutes with shaking. […] The IC50 values were calculated using GraphPad Prism.

recombinant human AMCase = recombinant human AMCase (Homo sapiens (Human), UniProt Q9BZP6); assay: Human AMCase activity assay; type: biochemical; details: citrate buffer pH 5.2, 37° C., 60 minutes, read-out: hAMCase, IC50
Method: as §1, with “4-Methylumbelliferyl B-D-N,N′-diacetylchitobioside hydrate” for “4-methylumbelliferyl β-D-N,N′,N″-triacetylchitotriose”, “AMCase,” for “CHIT1,”, “hAMCase” for “CHIT1”

hERG channel = hERG channel (Homo sapiens (Human), UniProt Q12809); assay: Human ERG channel binding assay (fluorescence polarization); details: tracer displacement, 4 h at room temperature
Method: Human ERG Channel Binding Assay
Fluorescence polarization assay based on the principle of fluorescence polarization where a red-shifted fluorescent tracer is displaced from the hERG channel by compounds that bind to the channel was used to establish the binding of the compounds to hERG channel. […] Briefly, the compounds in serial dilutions were incubated with a membrane fraction containing hERG channel protein and a high-affinity red fluorescent hERG channel ligand in black 384-well plate. […] The IC50 values were calculated using GraphPad Prism.

Chain of recombinant human AMCase (Q9BZP6 22-476): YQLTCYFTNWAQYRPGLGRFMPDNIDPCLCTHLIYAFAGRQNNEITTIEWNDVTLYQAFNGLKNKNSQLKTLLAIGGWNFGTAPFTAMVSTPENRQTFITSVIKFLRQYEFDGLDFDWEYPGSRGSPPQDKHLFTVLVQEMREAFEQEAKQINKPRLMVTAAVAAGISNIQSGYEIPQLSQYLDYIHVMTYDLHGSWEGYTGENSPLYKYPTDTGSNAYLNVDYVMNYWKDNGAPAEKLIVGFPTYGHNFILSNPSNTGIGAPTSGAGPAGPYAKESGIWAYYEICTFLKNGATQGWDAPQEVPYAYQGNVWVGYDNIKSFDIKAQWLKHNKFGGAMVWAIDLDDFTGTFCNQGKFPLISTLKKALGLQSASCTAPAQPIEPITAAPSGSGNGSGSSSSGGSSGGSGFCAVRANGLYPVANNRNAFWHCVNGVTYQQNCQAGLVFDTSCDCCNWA
Chain of recombinant human CHIT1 (Q13231 22-466): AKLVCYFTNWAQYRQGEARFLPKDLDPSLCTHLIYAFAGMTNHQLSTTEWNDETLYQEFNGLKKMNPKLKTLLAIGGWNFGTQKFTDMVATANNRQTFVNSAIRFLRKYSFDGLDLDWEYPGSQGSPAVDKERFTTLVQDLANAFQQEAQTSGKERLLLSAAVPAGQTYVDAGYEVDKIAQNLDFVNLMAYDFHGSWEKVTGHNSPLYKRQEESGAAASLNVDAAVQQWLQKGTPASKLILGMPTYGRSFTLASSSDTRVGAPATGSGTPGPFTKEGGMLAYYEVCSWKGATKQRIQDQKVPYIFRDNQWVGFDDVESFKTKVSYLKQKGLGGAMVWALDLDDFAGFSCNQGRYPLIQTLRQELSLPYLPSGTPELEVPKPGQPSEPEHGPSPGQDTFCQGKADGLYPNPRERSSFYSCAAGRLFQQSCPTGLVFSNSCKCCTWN
Chain of hERG channel (Q12809 whole entry): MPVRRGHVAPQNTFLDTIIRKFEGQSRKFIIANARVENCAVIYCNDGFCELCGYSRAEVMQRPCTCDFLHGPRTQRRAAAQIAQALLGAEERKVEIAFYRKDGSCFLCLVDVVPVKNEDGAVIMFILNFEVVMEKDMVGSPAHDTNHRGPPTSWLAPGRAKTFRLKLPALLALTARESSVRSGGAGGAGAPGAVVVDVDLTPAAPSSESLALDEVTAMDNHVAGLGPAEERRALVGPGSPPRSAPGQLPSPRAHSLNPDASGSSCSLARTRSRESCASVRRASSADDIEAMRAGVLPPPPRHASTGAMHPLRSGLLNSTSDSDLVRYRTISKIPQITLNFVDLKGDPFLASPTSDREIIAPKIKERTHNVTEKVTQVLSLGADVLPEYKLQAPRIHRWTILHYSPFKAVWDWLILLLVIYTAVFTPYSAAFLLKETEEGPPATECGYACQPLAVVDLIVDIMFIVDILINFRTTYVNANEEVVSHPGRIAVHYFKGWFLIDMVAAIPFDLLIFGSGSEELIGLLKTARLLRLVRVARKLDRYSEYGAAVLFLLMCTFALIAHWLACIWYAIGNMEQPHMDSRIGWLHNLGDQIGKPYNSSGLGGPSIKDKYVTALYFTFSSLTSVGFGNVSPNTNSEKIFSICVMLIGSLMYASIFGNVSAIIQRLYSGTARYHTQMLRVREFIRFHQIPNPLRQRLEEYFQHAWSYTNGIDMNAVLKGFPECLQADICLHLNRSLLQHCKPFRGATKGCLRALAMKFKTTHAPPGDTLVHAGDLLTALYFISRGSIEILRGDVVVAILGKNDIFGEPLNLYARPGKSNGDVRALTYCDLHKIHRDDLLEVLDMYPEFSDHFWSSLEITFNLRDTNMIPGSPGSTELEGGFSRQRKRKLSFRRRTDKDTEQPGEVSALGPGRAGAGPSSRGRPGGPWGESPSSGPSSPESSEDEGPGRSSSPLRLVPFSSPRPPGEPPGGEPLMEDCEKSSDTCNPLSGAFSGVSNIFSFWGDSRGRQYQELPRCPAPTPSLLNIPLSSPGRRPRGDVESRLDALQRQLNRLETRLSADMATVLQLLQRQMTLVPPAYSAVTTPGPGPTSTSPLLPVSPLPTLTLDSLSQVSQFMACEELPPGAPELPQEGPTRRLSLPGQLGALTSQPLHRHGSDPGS

| Compound | IC50 (recombinant human CHIT1) | IC50 (recombinant human AMCase) | IC50 (hERG channel; Table 1) | IC50 (hERG channel; Table 2, comparative examples) |
| --- | --- | --- | --- | --- |
| CC(F)[C@H]1CN(C2CCN(c3nnc(N)[nH]3)CC2)[C@@H](Cc2ccc(Cl)cc2)CO1 (relative stereo) [Example 20, 5-(4-((2R,5S)-5-(4-chlorobenzyl)-2-(1-fluoroethyl)morpholino)piperidin-1-yl)-4H-1,2,4-triazol-3-amine 2,2,2-trifluoroacetate] | < 100 nM | < 100 nM | > 100 µM | – |
| CC(C)(F)[C@H]1CN(C2CCN(c3nnc(N)[nH]3)CC2)[C@@H](Cc2ccc(Cl)cc2)CO1 [Example 1, 5-(4-((2R,5S)-5-(4-chlorobenzyl)-2-(2-fluoropropan-2-yl)morpholino)piperidin-1-yl)-4H-1,2,4-triazol-3-amine 2,2,2-trifluoroacetate] | < 100 nM | < 100 nM | 25 to 100 µM | – |
| Nc1nnc(N2CCC(N3C[C@H](C(F)F)OC[C@@H]3Cc3ccc(Cl)cc3)CC2)[nH]1 [Example 2, 5-(4-((2R,5S)-5-(4-chlorobenzyl)-2-(difluoromethyl)morpholino)piperidin-1-yl)-4H-1,2,4-triazol-3-amine 2,2,2-trifluoroacetate] | < 100 nM | < 100 nM | > 100 µM | – |
| C[C@@H]([C@H]1CN(C2CCN(c3nnc(N)[nH]3)CC2)[C@@H](Cc2ccc(Cl)cc2)CO1)n1cccn1 [Example 18, 5-(4-((2R,5S)-2-((S)-1-(1H-pyrazol-1-yl)ethyl)-5-(4-chlorobenzyl)morpholino)-piperidin-1-yl)-4H-1,2,4-triazol-3-amine 2,2,2-trifluoroacetate] | < 100 nM | < 100 nM | – | – |
| C[C@H]([C@H]1CN(C2CCN(c3nnc(N)[nH]3)CC2)[C@@H](Cc2ccc(Cl)cc2)CO1)n1cccn1 [Example 19, 5-(4-((2R,5S)-2-((R)-1-(1H-pyrazol-1-yl)ethyl)-5-(4-chlorobenzyl)morpholino)-piperidin-1-yl)-4H-1,2,4-triazol-3-amine 2,2,2-trifluoroacetate] | < 100 nM | < 100 nM | – | – |
| Nc1nnc(N2CCC(N3C[C@H](CN4CCCCC4=O)OC[C@@H]3Cc3ccc(Cl)cc3)CC2)[nH]1 [Example 35, 1-(((2R,5S)-4-(1-(5-amino-4H-1,2,4-triazol-3-yl)piperidin-4-yl)-5-(4-chlorobenzyl)-morpholin-2-yl)methyl)piperidin-2-one 2,2,2-trifluoroacetate] | < 100 nM | < 100 nM | – | – |
| Nc1nnc(N2CCC(N3C[C@H](CN4CCC(F)(F)CC4)OC[C@@H]3Cc3ccc(Cl)cc3)CC2)[nH]1 [Example 38, 5-(4-((2S,5S)-5-(4-chlorobenzyl)-2-((4,4-difluoropiperidin-1-yl)methyl)-morpholino)piperidin-1-yl)-4H-1,2,4-triazol-3-amine 2,2,2-trifluoroacetate] | < 100 nM | < 100 nM | – | – |
| Nc1nnc(N2CCC(N3C[C@H](COC(F)F)OC[C@@H]3Cc3ccc(Cl)cc3)CC2)[nH]1 [Example 40, 5-(4-((2R,5S)-5-(4-chlorobenzyl)-2-((difluoromethoxy)methyl)morpholino)-piperidin-1-yl)-4H-1,2,4-triazol-3-amine 2,2,2-trifluoroacetate] | < 100 nM | < 100 nM | – | – |
| CC(F)(F)[C@H]1CN(C2CCN(c3nnc(N)[nH]3)CC2)[C@@H](Cc2ccc(Cl)cc2)CO1 [Example 42, 5-(4-((2R,5S)-5-(4-chlorobenzyl)-2-(1,1-difluoroethyl)morpholino)piperidin-1-yl)-4H-1,2,4-triazol-3-amine dihydrochloride] | < 100 nM | < 100 nM | – | – |
| Nc1nnc(N2CCC(N3C[C@H](COCC(F)F)OC[C@@H]3Cc3ccc(Cl)cc3)CC2)[nH]1 [Example 43, 5-(4-((2R,5S)-5-(4-chlorobenzyl)-2-((2,2-difluoroethoxy)methyl)morpholino)-piperidin-1-yl)-4H-1,2,4-triazol-3-amine 2,2,2-trifluoroacetate] | < 100 nM | < 100 nM | – | – |
| Nc1nnc(N2CCC(N3CC(F)(F)C[C@@H]3Cc3ccc(Cl)cc3)CC2)[nH]1 [Example 56, (S)-5-(4-(2-(4-chlorobenzyl)-4,4-difluoropyrrolidin-1-yl)piperidin-1-yl)-4H-1,2,4-triazol-3-amine dihydrochloride] | < 100 nM | – | – | – |
| CC1(O)CCN(C2CCN(c3nnc(N)[nH]3)CC2)[C@@H](Cc2ccc(Cl)cc2)C1 (stereo partly drawn) [Example 59, (2S)-1′-(5-amino-4H-1,2,4-triazol-3-yl)-2-(4-chlorobenzyl)-4-methyl-[1,4′-bipiperidin]-4-ol 2,2,2-trifluoroacetate] | 1000 to 10000 nM | – | 25 to 100 µM | – |
| Nc1nnc(N2CCC(N3C[C@H](O)CC[C@@H]3Cc3ccc(Cl)cc3)CC2)[nH]1 [Example 70, (3R,6R)-1′-(5-amino-4H-1,2,4-triazol-3-yl)-6-(4-chlorobenzyl)-[1,4′-bipiperidin]-3-ol 2,2,2-trifluoroacetate] | < 100 nM | < 100 nM | – | – |
| CO[C@@H]1CC[C@H](Cc2ccc(Cl)cc2)N(C2CCN(c3nnc(N)[nH]3)CC2)C1 [Example 71, 5-((2R,5R)-2-(4-chlorobenzyl)-5-methoxy-[1,4′-bipiperidin]-1′-yl)-4H-1,2,4-triazol-3-amine 2,2,2-trifluoroacetate] | 100 to 1000 nM | – | 25 to 100 µM | – |
| Nc1nnc(N2CCC(N3CC4CC4C[C@@H]3Cc3ccc(Cl)cc3)CC2)[nH]1 (stereo partly drawn) [Example 72, 5-(4-((4R)-4-(4-chlorobenzyl)-3-azabicyclo[4.1.0]heptan-3-yl)piperidin-1-yl)-4H-1,2,4-triazol-3-amine 2,2,2-trifluoroacetate] | 100 to 1000 nM | < 100 nM | – | – |
| Nc1nnc(N2CCC(N3Cc4cncn4C[C@@H]3Cc3ccc(C(F)(F)F)cc3)CC2)[nH]1 [Example 77, (S)-5-(4-(6-(4-(trifluoromethyl)benzyl)-5,6-dihydroimidazo[1,5-a]pyrazin-7(8H)-yl)piperidin-1-yl)-4H-1,2,4-triazol-3-amine 2,2,2-trifluoroacetate] | 1000 to 10000 nM | – | – | – |
| Nc1nnc(N2CCC(N3CCOC[C@@H]3Cc3ccc(Cl)cc3)CC2)[nH]1 [Example C1, reference compound] | – | – | – | 10 to 25 µM |

| Compound | IC50 (recombinant human CHIT1) | IC50 (recombinant human AMCase) | IC50 (hERG channel; Table 1) | IC50 (hERG channel; Table 2, comparative examples) |
| --- | --- | --- | --- | --- |
| CC(C)C[C@H]1CN(C2CCN(c3nnc(N)[nH]3)CC2)[C@@H](Cc2ccc(Cl)cc2)CO1 [Example C2, reference compound] | – | – | – | 1 to 10 µM |
| COC(C)(C)[C@H]1CN(C2CCN(c3nnc(N)[nH]3)CC2)[C@@H](Cc2ccc(Cl)cc2)CO1 [Example C3, reference compound] | – | – | – | 10 to 25 µM |
| Nc1nnc(N2CCC(N3CCCC[C@@H]3Cc3ccc(Cl)cc3)CC2)[nH]1 [Example C4, reference compound] | – | – | – | 1 to 10 µM |
| CO[C@H]1CN(C2CCN(c3nnc(N)[nH]3)CC2)[C@H]1Cc1ccc(Cl)cc1 [Example C6, reference compound] | – | – | – | < 1 µM |
| Nc1nnc(N2CCC(N3CCC[C@@H]3Cc3ccc(Cl)cc3)CC2)[nH]1 [Example C7, reference compound] | – | – | – | 1 to 10 µM |
| C[C@H]1CN(C2CCN(c3nnc(N)[nH]3)CC2)[C@@H](Cc2ccc(Cl)cc2)CN1C [Example C8, reference compound] | – | – | – | 1 to 10 µM |
| CC(C)CN1CCN(C2CCN(c3nnc(N)[nH]3)CC2)[C@@H](Cc2ccc(Cl)cc2)C1 [Example C9, reference compound] | – | – | – | 1 to 10 µM |
| CN1C[C@H](Cc2ccc(Cl)cc2)N(C2CCN(c3nnc(N)[nH]3)CC2)C[C@@H]1Cc1ccc(Cl)cc1 [Example C10, reference compound] | – | – | – | < 1 µM |
| CN1C[C@H](Cc2ccc(Cl)cc2)N(C2CCN(c3nnc(N)[nH]3)CC2)C[C@@H]1CC1CCCCC1 [Example C11, reference compound] | – | – | – | < 1 µM |
| CC(C)C[C@H]1CN(C2CCN(c3nnc(N)[nH]3)CC2)[C@@H](Cc2ccc(Cl)cc2)CN1C [Example C12, reference compound] | – | – | – | < 1 µM |
| Nc1nnc(N2CCC(N3C[C@@H](O)C[C@@H]3Cc3ccc(Cl)cc3)CC2)[nH]1 [Example C14, reference compound] | – | – | – | 10 to 25 µM |
| Nc1nnc(N2CCC(N3C[C@@H]4CCCN4C[C@@H]3Cc3ccc(Cl)cc3)CC2)[nH]1 [Example C15, reference compound] | – | – | – | 1 to 10 µM |
| CN1C[C@H](Cc2ccc(Cl)cc2)N(C2CCN(c3nnc(N)[nH]3)CC2)Cc2ccccc21 [Example C17, reference compound] | – | – | – | 1 to 10 µM |
| CN1C[C@H](Cc2ccc(Cl)cc2)N(C2CCN(c3nnc(N)[nH]3)CC2)Cc2cc(Cl)ccc21 [Example C18, reference compound] | – | – | – | < 1 µM |
| Nc1nnc(N2CCC(N3Cc4cc(Cl)ccc4OC[C@@H]3Cc3ccc(Cl)cc3)CC2)[nH]1 [Example C20, reference compound] | – | – | – | 1 to 10 µM |
| Nc1nnc(N2CCC(N3Cc4cc(Cl)cc(Cl)c4OC[C@@H]3Cc3ccc(Cl)cc3)CC2)[nH]1 [Example C21, reference compound] | – | – | – | 1 to 10 µM |

Source: patent publication US11638707B2, “Substituted amino triazoles useful as chitinase inhibitors” (Molecure S.A., priority 2019, dated 2023)
